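In this assay, cells in 96-well plates receive the compound at five concentrations for 48 hours. Endpoints are linearly interpolated between the surrounding concentrations. GI50 = concentration required for 50% inhibition of growth. TGI marks complete inhibition of growth.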 Where only a bound is given, the exact number is not on record here.

Test systems include MDA-MB-231 breast; HCC-2998 colon; K-562 leukemia; A498 renal; SW-620 colon; SK-MEL-5 melanoma; NCI-H23 lung; RPMI-8226 leukemia; ACHN renal; MDA-N; BT-549 breast.
Test in all cases: NCI anticancer screen, dose series, 48 h

With `N#Cc1ccc(/C=N/NC(=O)CSCC(=O)N/N=C/c2ccc(C#N)cc2)cc1`, the TGI in the test with MDA-MB-231 breast was 81.7 µM; with HCC-2998 colon, more than 100 µM; with K-562 leukemia, more than 100 µM; in the test with A498 renal, more than 100 µM; in the test with SW-620 colon, more than 100 µM; in the test with SK-MEL-5 melanoma, more than 100 µM. Moreover, the TGI with NCI-H23 lung, in the test on RPMI-8226 leukemia and in the test with ACHN renal was more than 100 µM throughout.

For `CCn1nc(-c2ccccc2)c2c1N(C)c1ccccc1-n1c(-c3ccccc3)nnc1-2`, the TGI with MDA-MB-231 breast was 28.6 µM; in the test on HCC-2998 colon, 29.3 µM; with K-562 leukemia, more than 100 µM; with A498 renal it was 11.2 µM; in the test with SW-620 colon it was 29.6 µM; in the test with MDA-N it was 28.9 µM. In addition, the TGI with SK-MEL-5 melanoma was 21.2 µM; in the test on NCI-H23 lung, 28.2 µM; in the test with RPMI-8226 leukemia it was more than 100 µM; in the test on ACHN renal, 26.8 µM.

In the case of `Cc1ccc2ccc(=O)oc2c1`, the TGI in the test on MDA-MB-231 breast, with K-562 leukemia, in the test on A498 renal, in the test with SW-620 colon, in the test with MDA-N and in the test with SK-MEL-5 melanoma was more than 100 µM in each case. Besides, the TGI in the test with NCI-H23 lung, with BT-549 breast, in the test with RPMI-8226 leukemia and in the test on ACHN renal was more than 100 µM in each case.

Turning to `CN1c2ccccc2C(=O)NC12CCN(Cc1ccccc1)CC2`, the TGI with MDA-MB-231 breast, in the test on HCC-2998 colon, in the test with A498 renal, in the test with SW-620 colon, in the test with SK-MEL-5 melanoma and with NCI-H23 lung was more than 100 µM each time. Also, the TGI with RPMI-8226 leukemia and in the test with ACHN renal was more than 100 µM in each case.

On to `O=c1[nH]c2nccnc2c2c([N+](=O)[O-])cccc12`, for which the TGI with HCC-2998 colon, in the test on K-562 leukemia, in the test on A498 renal, with SW-620 colon, with MDA-N and in the test with SK-MEL-5 melanoma was more than 100 µM each time. Moreover, the TGI in the test with NCI-H23 lung, in the test with BT-549 breast, in the test with RPMI-8226 leukemia and in the test with ACHN renal was more than 100 µM each time.

Turning to `Cc1c(NC(=S)N/N=C\C(=N/NC(=S)Nc2c(C)n(C)n(-c3ccccc3)c2=O)c2ccccc2)c(=O)n(-c2ccccc2)n1C`, the TGI in the test with MDA-MB-231 breast, in the test on HCC-2998 colon, in the test with A498 renal, in the test on SW-620 colon, with SK-MEL-5 melanoma and with NCI-H23 lung was more than 100 µM each time. For the same molecule, the TGI in the test on BT-549 breast and in the test with ACHN renal was more than 100 µM throughout.

Take `O=C1CSC(c2cccc(Cl)c2)N1c1c(O)c(Cl)cc(Br)c1Cl` (stereo unspecified): the TGI in the test with MDA-MB-231 breast is 27.5 µM; with K-562 leukemia, more than 100 µM; in the test on A498 renal, more than 100 µM; with SW-620 colon, 32.7 µM; in the test on MDA-N, 34.1 µM; with SK-MEL-5 melanoma, more than 100 µM. In addition, the figures for the TGI with NCI-H23 lung, with RPMI-8226 leukemia and in the test with ACHN renal were more than 100 µM, 39.4 µM and 27.9 µM, respectively.

Regarding `COC(=O)c1c(O)ccc2c1c1c(n2Cc2ccc(OC)cc2)C(=O)c2ccccc2C1=O`, the TGI in the test with HCC-2998 colon was 7.18 µM; with K-562 leukemia, 20 µM; in the test with A498 renal it was 47.2 µM; with SW-620 colon, 45.6 µM; in the test with MDA-N, 32.7 µM; with NCI-H23 lung, 32.2 µM. The TGI in the test with BT-549 breast was 3.06 µM; in the test with RPMI-8226 leukemia, 1.9 µM; in the test on ACHN renal it was 12.6 µM.

Take `COc1cc(C(=O)O[C@H](C(=O)NCCNC(=O)[C@@H](OC(=O)c2cc(OC)cc3c(C)cccc23)[C@]2(C)CO2)[C@]2(C)CO2)c2cccc(C)c2c1`: the GI50 is 95.3 nM in the test on HCC-2998 colon; less than 19.3 nM with K-562 leukemia; 2210 nM with A498 renal; less than 10 nM with SW-620 colon; 33.1 nM in the test on SK-MEL-5 melanoma; less than 10 nM in the test with NCI-H23 lung. Moreover, the figures for the GI50 in the test on BT-549 breast and with RPMI-8226 leukemia were 335 nM and 282 nM, respectively. In addition, the TGI is 2.49 µM in the test on HCC-2998 colon; 15.3 µM in the test on K-562 leukemia; 4.35 µM in the test with A498 renal; more than 100 µM in the test on SW-620 colon; 0.28 µM with SK-MEL-5 melanoma; 0.0987 µM in the test with NCI-H23 lung. Further, the figures for the TGI with BT-549 breast and in the test on RPMI-8226 leukemia were 3.39 µM and 10.6 µM, respectively.

Turning to `N#Cc1ccc(OC(=O)c2ccc(N=C(N)N)cc2)cc1`, the TGI with MDA-MB-231 breast, with K-562 leukemia, in the test with A498 renal, in the test with SW-620 colon, with MDA-N and with SK-MEL-5 melanoma was more than 100 µM each time. The TGI in the test with NCI-H23 lung, in the test with BT-549 breast, in the test with RPMI-8226 leukemia and with ACHN renal was more than 100 µM throughout.

With `O=C1c2n[nH]nc2C(=O)c2n[nH]nc21`, the TGI in the test on MDA-MB-231 breast, in the test with HCC-2998 colon, in the test on K-562 leukemia, with A498 renal, in the test on SW-620 colon and with MDA-N was more than 100 µM throughout. The TGI with SK-MEL-5 melanoma, with NCI-H23 lung, in the test on RPMI-8226 leukemia and in the test on ACHN renal was more than 100 µM throughout.

For `Fc1ccc(C2NC(=S)NC3=C2CCOc2c3ccc3ccccc23)cc1` (stereo unspecified), the TGI is 69.1 µM with HCC-2998 colon; more than 100 µM with K-562 leukemia; 79.5 µM with A498 renal; more than 100 µM in the test with SW-620 colon; 37.1 µM in the test with SK-MEL-5 melanoma; more than 100 µM in the test on NCI-H23 lung. The TGI in the test with BT-549 breast, with RPMI-8226 leukemia and with ACHN renal was more than 100 µM in each case.

For `Cc1ccc(C2(N3CCCC3)OC(C)(C)c3cccc4cccc2c34)cc1` (stereo unspecified), the TGI in the test with K-562 leukemia was more than 100 µM; with A498 renal it was 30 µM; in the test with SW-620 colon, 30.9 µM; in the test with MDA-N, 29.9 µM; in the test on SK-MEL-5 melanoma, 28.2 µM; in the test on NCI-H23 lung it was 29.9 µM. Moreover, the TGI with BT-549 breast was determined as 31.3 µM; with RPMI-8226 leukemia, 71.9 µM; in the test with ACHN renal, 29.9 µM.

In the case of `CC1(C)CC(=O)C2=C(C1)NC(SCC(=O)O)=C(C#N)C2c1ccc(Br)cc1` (stereo unspecified), the TGI in the test on MDA-MB-231 breast, with HCC-2998 colon, in the test on A498 renal, in the test with SW-620 colon, in the test on MDA-N and in the test on SK-MEL-5 melanoma was more than 100 µM each time. The TGI with NCI-H23 lung, in the test with BT-549 breast and with ACHN renal was more than 100 µM throughout.

Source of the values: PubChem BioAssay (NCI).
